Laboratory results taken from PMC6976569, “Structural basis of subtype-selective competitive antagonism for GluN2C/2D-containing NMDA receptors” (Nature Communications, 2020).
Several values for one entry are separate records, joined by “and”; a condition that tells them apart may be missing. Equal entries are not always repeated.

Tests used:
GluN1-4a/GluN2A NMDARs [1] = target: T1, GluN1-4a/GluN2A NMDARs (Rattus norvegicus, UniProt P35439+Q00959); assay: TEVC electrophysiology on Xenopus laevis oocytes expressing GluN1-4a/GluN2A; type: cell-based; conditions: for Ki: Cheng–Prusoff from IC50 and L-glutamate EC50, 100 μM glycine, 1 or 3 μM L-glutamate
T1 construct: expressed in transfected cells; host or cells: Xenopus laevis oocytes injected with cRNA
T1 sequence (Q00959 23-1464, other chains not shown): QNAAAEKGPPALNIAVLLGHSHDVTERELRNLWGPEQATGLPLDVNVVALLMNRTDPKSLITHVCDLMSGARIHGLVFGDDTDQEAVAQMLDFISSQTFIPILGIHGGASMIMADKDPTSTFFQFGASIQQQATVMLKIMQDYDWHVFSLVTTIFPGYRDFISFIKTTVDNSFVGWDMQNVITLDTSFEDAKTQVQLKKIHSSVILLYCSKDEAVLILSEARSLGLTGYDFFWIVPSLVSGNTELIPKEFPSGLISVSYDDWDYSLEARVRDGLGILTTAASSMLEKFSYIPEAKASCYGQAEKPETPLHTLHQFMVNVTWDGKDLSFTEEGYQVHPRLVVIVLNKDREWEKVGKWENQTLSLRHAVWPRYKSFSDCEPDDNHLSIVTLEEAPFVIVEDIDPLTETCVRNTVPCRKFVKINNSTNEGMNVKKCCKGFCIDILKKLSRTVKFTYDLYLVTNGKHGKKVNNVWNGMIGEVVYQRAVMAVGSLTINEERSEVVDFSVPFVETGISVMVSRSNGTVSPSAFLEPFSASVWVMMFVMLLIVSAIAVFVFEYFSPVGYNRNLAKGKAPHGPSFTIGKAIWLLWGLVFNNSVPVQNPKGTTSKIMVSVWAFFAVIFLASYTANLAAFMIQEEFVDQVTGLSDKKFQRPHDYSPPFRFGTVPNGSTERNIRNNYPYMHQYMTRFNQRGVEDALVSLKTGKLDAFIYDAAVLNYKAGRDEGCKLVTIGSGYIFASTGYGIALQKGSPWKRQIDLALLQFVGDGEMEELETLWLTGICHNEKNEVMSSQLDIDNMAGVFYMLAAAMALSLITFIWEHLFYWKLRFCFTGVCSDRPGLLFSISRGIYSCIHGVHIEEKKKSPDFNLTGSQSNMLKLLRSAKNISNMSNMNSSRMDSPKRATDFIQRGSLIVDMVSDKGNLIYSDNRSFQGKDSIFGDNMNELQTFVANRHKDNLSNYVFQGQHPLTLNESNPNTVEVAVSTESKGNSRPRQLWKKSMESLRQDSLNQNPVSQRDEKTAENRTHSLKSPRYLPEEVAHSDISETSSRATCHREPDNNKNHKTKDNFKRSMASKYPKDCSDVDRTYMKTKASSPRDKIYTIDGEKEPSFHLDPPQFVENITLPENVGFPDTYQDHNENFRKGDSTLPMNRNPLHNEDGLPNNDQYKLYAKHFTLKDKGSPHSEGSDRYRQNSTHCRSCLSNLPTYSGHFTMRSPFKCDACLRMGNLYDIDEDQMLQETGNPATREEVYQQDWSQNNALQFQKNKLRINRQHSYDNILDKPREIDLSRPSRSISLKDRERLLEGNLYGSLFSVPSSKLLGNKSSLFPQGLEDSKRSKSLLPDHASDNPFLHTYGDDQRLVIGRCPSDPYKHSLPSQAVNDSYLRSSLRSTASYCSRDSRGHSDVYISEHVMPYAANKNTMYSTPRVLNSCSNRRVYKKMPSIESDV
Description: (§1) The chemical definition of UBP791 used in this study is a cis-racemic mixture of (2S,3R)- and (2R,3S)-isomers.
(§2) Plasmids (pSP or pCI_NEO) harboring rat GluN1 or GluN2 full-length subunits were linearized by restriction digestion and transcribed according to the manufacturer’s instructions (mMESSAGE mMachine SP6 or T7 kit, ThermoFisher Scientific). Recombinant rat GluN1-4a and GluN2 were expressed by co-injecting cRNA at a 1:2 (w/w) ratio into defolliculated X. laevis oocytes (amounts varied from 0.05–25 ng per oocyte). Two-electrode voltage-clamp recordings were performed 1–3 days after injection using agarose-tipped microelectrodes (0.4–1.2 MΩ) filled with 3 M KCl at a holding potential of −60 mV. The bath solution contained 5 mM HEPES, 100 mM NaCl, 0.3 mM BaCl2, 10 mM Tricine, at pH 7.4 (adjusted with KOH). […] For the statistical evaluation, we implemented pairwise F-tests to test variances, and then performed the Student t test with equal or unequal variances as determined previously, and accounted for multiple testing with the Bonferroni correction.

GluN1-4a/GluN2A NMDARs [2] = target: T2, GluN1-4a/GluN2A NMDARs (Rattus norvegicus, UniProt Q00959); assay: as above; type: cell-based; conditions: for fold difference of Ki vs. 2D (GluN2A): Ki GluN2A relative to Ki GluN2D (WT)
T2 construct: expressed in transfected cells; host or cells: Xenopus laevis oocytes injected with cRNA
T2 sequence (Q00959 23-1464, other chains not shown): as above
Description: as §1, §2

GluN1-4a/GluN2B NMDARs [3] = target: T3, GluN1-4a/GluN2B NMDARs (Rattus norvegicus, UniProt P35439+Q00960); assay: TEVC electrophysiology on Xenopus laevis oocytes expressing GluN1-4a/GluN2B; type: cell-based
T3 construct: expressed in transfected cells; host or cells: Xenopus laevis oocytes injected with cRNA
Description: as §1, §2

GluN1-4a/GluN2B NMDARs [4] = target: T4, GluN1-4a/GluN2B NMDARs (Rattus norvegicus, UniProt Q00960); assay: as above; type: cell-based; conditions: for fold difference of Ki vs. 2D (GluN2B): Ki GluN2B relative to Ki GluN2D (WT)
T4 construct: expressed in transfected cells; host or cells: Xenopus laevis oocytes injected with cRNA
Description: as §1, §2

GluN1-4a/GluN2D NMDARs [5] = target: T5, GluN1-4a/GluN2D NMDARs (Rattus norvegicus, UniProt P35439+Q62645); assay: TEVC electrophysiology on Xenopus laevis oocytes expressing GluN1-4a/GluN2D; type: cell-based; conditions: for Ki: 100 μM glycine, 1 or 3 μM L-glutamate
T5 construct: expressed in transfected cells; host or cells: Xenopus laevis oocytes injected with cRNA
T5 sequence (Q62645 28-1323, other chains not shown): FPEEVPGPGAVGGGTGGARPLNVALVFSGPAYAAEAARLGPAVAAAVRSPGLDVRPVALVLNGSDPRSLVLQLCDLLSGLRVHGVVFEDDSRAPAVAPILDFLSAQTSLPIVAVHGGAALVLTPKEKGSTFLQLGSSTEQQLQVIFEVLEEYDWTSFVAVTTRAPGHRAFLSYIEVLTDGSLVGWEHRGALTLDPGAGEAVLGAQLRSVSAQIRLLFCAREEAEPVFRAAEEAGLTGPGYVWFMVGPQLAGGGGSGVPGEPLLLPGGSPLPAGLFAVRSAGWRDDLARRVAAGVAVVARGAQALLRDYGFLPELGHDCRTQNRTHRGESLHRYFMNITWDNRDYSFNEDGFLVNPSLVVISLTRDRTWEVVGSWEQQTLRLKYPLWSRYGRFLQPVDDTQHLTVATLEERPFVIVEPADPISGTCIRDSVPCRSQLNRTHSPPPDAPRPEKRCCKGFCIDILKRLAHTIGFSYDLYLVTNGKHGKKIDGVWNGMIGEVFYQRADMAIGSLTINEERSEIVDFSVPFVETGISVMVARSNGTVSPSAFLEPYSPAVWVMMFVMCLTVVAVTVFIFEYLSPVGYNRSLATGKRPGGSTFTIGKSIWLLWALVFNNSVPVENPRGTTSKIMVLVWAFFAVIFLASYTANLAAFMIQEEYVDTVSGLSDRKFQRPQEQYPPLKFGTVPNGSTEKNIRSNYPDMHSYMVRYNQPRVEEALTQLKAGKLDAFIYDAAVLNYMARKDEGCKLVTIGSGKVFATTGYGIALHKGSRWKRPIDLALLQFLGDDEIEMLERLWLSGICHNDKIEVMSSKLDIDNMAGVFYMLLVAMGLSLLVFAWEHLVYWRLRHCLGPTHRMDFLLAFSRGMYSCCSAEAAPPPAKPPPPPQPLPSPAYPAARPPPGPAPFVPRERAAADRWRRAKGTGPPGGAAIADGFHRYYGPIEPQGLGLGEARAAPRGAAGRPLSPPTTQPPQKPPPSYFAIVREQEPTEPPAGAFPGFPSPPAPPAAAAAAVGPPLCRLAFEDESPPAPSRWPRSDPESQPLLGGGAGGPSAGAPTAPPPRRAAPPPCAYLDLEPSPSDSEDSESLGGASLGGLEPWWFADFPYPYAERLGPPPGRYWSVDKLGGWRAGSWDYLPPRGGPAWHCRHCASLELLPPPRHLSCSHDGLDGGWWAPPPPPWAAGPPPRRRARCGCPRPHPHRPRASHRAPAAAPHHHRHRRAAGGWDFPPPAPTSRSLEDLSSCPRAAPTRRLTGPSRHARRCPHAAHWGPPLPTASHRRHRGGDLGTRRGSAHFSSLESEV
Description: as §1, §2

GluN1-4a/GluN2D NMDARs [6] = target: T6, GluN1-4a/GluN2D NMDARs (Rattus norvegicus, UniProt Q62645); assay: as above; type: cell-based
T6 construct: expressed in transfected cells; host or cells: Xenopus laevis oocytes injected with cRNA
T6 sequence (Q62645 28-1323, other chains not shown): as above
Description: as §1, §2

GluA1 = GluA1 (Homo sapiens, UniProt P42261); assay: Glutamate-stimulated Ca2+-influx fluorescence assay in HEK293 cells, GluA1; type: cell-based; conditions: for IC50: HEK293 cells, glutamate-stimulated Ca2+-influx
GluA1, sequence (P42261 19-906): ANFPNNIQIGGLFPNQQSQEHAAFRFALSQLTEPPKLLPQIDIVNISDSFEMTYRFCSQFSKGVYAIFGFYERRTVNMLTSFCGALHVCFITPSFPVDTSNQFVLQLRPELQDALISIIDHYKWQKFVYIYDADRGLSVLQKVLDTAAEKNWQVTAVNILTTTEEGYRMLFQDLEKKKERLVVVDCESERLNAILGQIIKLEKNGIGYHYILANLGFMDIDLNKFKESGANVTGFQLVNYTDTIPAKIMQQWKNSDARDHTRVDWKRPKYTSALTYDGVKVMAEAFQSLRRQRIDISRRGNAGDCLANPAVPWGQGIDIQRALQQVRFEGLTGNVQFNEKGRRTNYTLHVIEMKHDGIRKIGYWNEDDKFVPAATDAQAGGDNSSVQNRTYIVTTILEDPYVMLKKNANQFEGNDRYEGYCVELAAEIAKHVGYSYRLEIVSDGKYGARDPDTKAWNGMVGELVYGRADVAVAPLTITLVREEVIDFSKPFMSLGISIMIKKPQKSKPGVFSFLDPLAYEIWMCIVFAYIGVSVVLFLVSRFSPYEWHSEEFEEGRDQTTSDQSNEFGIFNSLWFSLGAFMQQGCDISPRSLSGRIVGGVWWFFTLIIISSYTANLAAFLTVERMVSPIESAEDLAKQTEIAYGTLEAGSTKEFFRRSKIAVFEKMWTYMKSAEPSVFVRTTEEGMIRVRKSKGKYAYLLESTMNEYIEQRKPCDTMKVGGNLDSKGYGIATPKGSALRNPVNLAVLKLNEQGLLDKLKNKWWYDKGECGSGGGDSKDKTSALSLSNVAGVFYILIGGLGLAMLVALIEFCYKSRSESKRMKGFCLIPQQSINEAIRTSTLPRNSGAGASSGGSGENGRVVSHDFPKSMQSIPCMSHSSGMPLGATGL
Method: (§3) HEK293 cell lines stably expressing homomeric glutamate receptors (GluA1, GluK1 and GluK2) were obtained from Eli Lilly and grown in DMEM (ThermoFisher) supplemented with 10% v/v fetal bovine serum (Sigma), 2 mM Glutamax™ (Gibco), 100 U/mL penicillin, 100 µg streptomycin and 250 ng amphotericin B (Sigma) in 5% CO2 at 37 °C. Cells were passaged using TrypLE (Gibco) as required before confluency and periodically treated with selection antibiotics (GluK1, GluK2 hygromycin B, 200 µg/mL; GluA1 geneticin™, 200 µg/mL).
(§4) Calcium influx fluorescence assay
(§5) 100k cells/well were seeded into a 96-well plate precoated with poly-L-lysine and incubated for 12-16 hours until fully confluent. The cell monolayer was washed twice with 100 µL Hanks Balanced Salt Solution supplemented with 5 mM CaCl2 and 20 mM HEPES (sHBSS), then incubated for 2-4 hours with 100 µL working solution of Ca6 dye (Molecular Devices) supplemented with a desensitization blocker (GluK1, GluK2 0.25 mg/mL concanavalin A, Sigma; GluA1 100 µM cyclothiazide, Sigma). The time resolved fluorescence was recorded in a Flexstation 3 instrument (Molecular Devices). For each individual reading, the initial fluorescence of the well was measured for 20 seconds, after which the desired concentration of […]
(§6) response is measured as the peak change in fluorescence upon addition of agonist. The viability of the cells was confirmed by determination of the concentration-response curve to the L-glutamate agonist and a standard antagonist for each plate. Readings of antagonists used the […]
(§7) Fluorescence traces were performed in […]
(§8) triplicate on each plate and Ki values were determined on a plate-by-plate basis. Separate experiments (n) were performed on different passages of cells. […]

GluK2 = GluK2 (Homo sapiens, UniProt Q13002); assay: Glutamate-stimulated Ca2+-influx fluorescence assay in HEK293 cells, GluK2; type: cell-based; conditions: for IC50: HEK293 cells, glutamate-stimulated Ca2+-influx
Method: as §3, §4, §5, §6, §7, §8

human GluK1 = human GluK1 (Homo sapiens, UniProt P39086); assay: Glutamate-stimulated Ca2+-influx fluorescence assay in HEK293 cells, GluK1; type: cell-based
Method: Supplementary Figure 5. Effect of antagonist compounds on GluK1.
Averaged dose-response curves (average ± standard error of the mean) for inhibition with a […]
glutamate-stimulated Ca2+-influx assay from 3 or 4 measurements (n). IC50, Ki, and Hill coefficient nH (mean ± standard error of the mean) calculated with the Cheng-Prusoff equation were determined per measurement and are as shown. […]
HEK293 cell lines stably expressing homomeric glutamate receptors (GluA1, GluK1 and GluK2) were obtained from Eli Lilly and grown in DMEM (ThermoFisher) supplemented with 10% v/v fetal bovine serum (Sigma), 2 mM Glutamax™ (Gibco), 100 U/mL penicillin, 100 µg streptomycin and 250 ng amphotericin B (Sigma) in 5% CO2 at 37 °C. […]
as §4
100k cells/well were seeded into a 96-well plate precoated with poly-L-lysine and incubated for 12-16 hours until fully confluent. […] The time resolved fluorescence was recorded in a Flexstation 3 instrument (Molecular Devices). For each individual reading, the initial fluorescence of the well was measured for 20 seconds, after which the desired concentration of […]
response is measured as the peak change in fluorescence upon addition of agonist. […] Readings of antagonists used the […]
as §7
triplicate on each plate and Ki values were determined on a plate-by-plate basis. […]

[7] = Water solubility (statement); type: physicochemical; conditions: authors' statement in peer review file
[8] = inhibition dose-response, 100 μM glycine, 1 or 3 μM L-glutamate
[9] = normalized response at 30 µM compound
[10] = normalized response at 100 µM compound

| SMILES | Ki (GluN1-4a/GluN2A NMDARs [1]) | fold difference of Ki vs. 2D (GluN2A) (GluN1-4a/GluN2A NMDARs [2]) | Ki (GluN1-4a/GluN2B NMDARs [3]) [nM] | fold difference of Ki vs. 2D (GluN2B) (GluN1-4a/GluN2B NMDARs [4]) | Ki (GluN1-4a/GluN2D NMDARs [5]; Cheng–Prusoff) | IC50 (GluA1) [nM] | Mean Response (GluA1; [9]) [%] | Mean Response (GluA1; [10]) [%] | IC50 (GluK2) [nM] | Mean Response (GluK2; [9]) [%] | Mean Response (GluK2; [10]) [%] | Ki (human GluK1) [nM] | water solubility relative to PPDA [7] | also measured |
| --- | --- | --- | --- | --- | --- | --- | --- | --- | --- | --- | --- | --- | --- | --- |
| O=C(O)CCc1ccc2c(ccc3cc(C(=O)N4CCN[C@@H](C(=O)O)[C@H]4C(=O)O)ccc32)c1 (relative stereo) [UBP791, (2S*,3R*)-1-(7-(2-carboxyethyl)phenanthrene-2-carbonyl)piperazine-2,3-dicarboxylic acid] | 4070 nM and ~4000 nM | ~ 47 fold | 1380 ± 360 | ~ 16 fold | 80 to 90 nM | > 100000 | 94.1 | 86.0 | > 100000 | 96.1 | 97.8 | ~100000 | more water soluble than PPDA | IC50 (GluN1-4a/GluN2A NMDARs [1]): 6310 ± 400 nM; Hill coefficient (nH) (GluN1-4a/GluN2A NMDARs [2]; [8]): 1.19 ± 0.07; GluN2C/2D-selectivity over GluN2A (GluN1-4a/GluN2A NMDARs [2]; ratio of Ki values): 47 fold; GluN2C/2D-selectivity over GluN2B (GluN1-4a/GluN2B NMDARs [4]; ratio of Ki values): 16 fold; IC50 (GluN1-4a/GluN2D NMDARs [5]): 560 ± 10 nM; Ki (GluN1-4a/GluN2D NMDARs [5]; Cheng–Prusoff from IC50 and L-glutamate EC50): 90 ± 20 nM; Hill coefficient (nH) (GluN1-4a/GluN2D NMDARs [6]; [8]): 1.40 ± 0.02 |
| O=C(O)C=Cc1ccc2c(ccc3cc(C(=O)N4CCN[C@@H](C(=O)O)[C@H]4C(=O)O)ccc32)c1 (relative stereo) [UBP1700, (2S*,3R*)-1-(7-(2-carboxyvinyl)phenanthrene-2-carbonyl)piperazine-2,3-dicarboxylic acid] | 430 ± 40 nM | ~ 64 fold | 350 ± 50 | ~ 52 fold and 52 fold | 7 nM and 7 to 9 nM | > 100000 | 105.1 | 101.8 | > 100000 | 76.5 | 90.4 | ~32000 | more water soluble than PPDA | selectivity for GluN2C over GluN2A (GluN1-4a/GluN2A NMDARs [2]; ratio of Ki values): 50 fold; selectivity for GluN2C over GluN2B (GluN1-4a/GluN2B NMDARs [4]; ratio of Ki values): 40 fold; fold higher affinity on GluN2D compared to UBP145 and UBP161 (GluN1-4a/GluN2D NMDARs [6]; peer review file, authors' response): > 140 fold |
